US11324209B2, “Composition to promote migration of acarids” (ACAR'UP SPRL, priority 2017, dated 2022)
Where “and” joins values, the source holds several entries; their conditions need not be identical. Equal entries are not always repeated.

Key:
[1] = Shelf life and storage of the aqueous solution, citral and limonene by GC; type: physicochemical
Procedure: Finding an appropriate storage material. Verifying the presence of volatile attractive molecules in fresh solutions (freshly produced, 1 day old) and stored solutions (8-12 months). Determining the quantity of those attractive molecules in said solutions, and thus allowing to follow said solutions' chemical profiles within time.
An aqueous solution of 3.5 ng/μL essential oil from Melissa officinalis, 3.6 ng/μL essential oil from Cymbopogon flexuosus citraliferum and 5 ng/μL polysorbate 20 was produced, bottled and stored.
Bottle material test: Two types of 100-ml bottles were tested. A plastic and an aluminum bottle were produced (20 bottles for each material). The bottles were stored 1 month, and then tested for the presence of citral.
Long term shelf life test: 38 bottled solutions (stored 8-12 months) and 11 bottled fresh solutions (stored 1 day) were tested to compare the presence and quantity of citral and limonene.
Quantitative measurements for citral and limonene were done by gas chromatography (GC). These are well known in the art. The essential oils were extracted from 25 ml of said bottled solution using 2 ml of n-hexane (LC-MS or HPLC grade). A sample of (1 μl) of the n-hexane extract was injected in the GC-MS equipped with a mass detector and using an OPTIMA-5MS capillary column (30 m, 0.25 mm I.D., […]). Programmed temperature elution was employed with an initial temperature of 40° C., then ramped to 280° C. at 8° C./min and held at 280° C. for 5 min. Helium was used as the carrier gas. Electron impact ionization was performed using an electron energy of 70 eV and a mass range of 40-800 m/z.

[2] = tested on: Dermatophagoides pteronyssinus; test: Binary choice test of mites between tested felt and control felt in a Petri dish; type: in vivo; design: key to stat Test: Stat diff: statistically different; NS: not significant; conditions: for Mean (binary choice of dust mites, tested felt) / stat Test: control felt + 1 μL H2O
Procedure: Aim of the experiments: All experiments are tests of binary choice aiming to determine the preference of mites and the place where they prefer to stay (at least for 30 min).
Rearing: The species studied was Dermatophagoides pteronyssinus, a dust mite common in mattresses in Eurasia. Mites are reared in Petri dishes and fed with human skin flakes (skin and whiskers obtained by cleaning electric shavers). All mites were reared together under defined conditions (20° C. and 75% relative humidity). The experiments took place in a room kept at 20° C. and 40% relative humidity.
Materials and methods: A group of mites (20<n<40) was placed in the centre of a Petri dish (∅=5.5 cm) around which two semi-circles of felt were placed (see FIG. 1). The pieces of felts were 70 mg/cm^2, their thickness was 2 mm. One felt is the control (control felt); the other felt is the felt with the tested item, for instance the felt that is impregnated with a chemical compound that is tested.
Mites move spontaneously towards one of the two felts.
Observations and counting of mites was made under binocular microscope (magnification 10*). The set-up is illuminated with a cold lamp (KL 1500 LCD, Schott®), the lighting is symmetric and the light intensity was 50 Klux. The experimental conditions were controlled in the room (T° C.: 19-22° C. and RH 40%).
Aim of the experiments: In the experiments, the tested felt was impregnated with chemicals that may be chemical acarid attractants.
Different compounds were tested: Citral, limonene, α-pinene, eucalyptol, lavendulol, polysorbate 20. Dust mites were attracted to the dilute citral (10^−6) but the citral 10^−3 is repellent. The limonene (dil. 10^−5) and the α-pinene (dil. 10^−6) were attractive for mites.

[3] = tested on: Dermatophagoides pteronyssinus; test: Trap test on infested mini-mattresses with sprayed felt, mites counted via Berlese funnel; type: in vivo; conditions: felt 100% polyester; 4 ml/200 cm^2; drying + exposure 0 h + 2 h; dilution 0.00001
Procedure: Rearing: The species studied was Dermatophagoides pteronyssinus, a dust mite common in mattresses in Eurasia. Mites are reared in Petri dishes and fed with human skin flakes (skin and whiskers obtained by cleaning electric […]). All mites were reared together under defined conditions (20° C. and 75% relative humidity). The experiments took place in a room kept at 20° C. and 40% relative humidity. Aim of the experiments: The aim was to test the trap in condition similar to the conditions that will be met by the user of the trap. Materials and methods: The mattresses were built at a smaller scale (15× reduction) than usual mattresses. These mini-mattresses are made in polyurethane and covered by a cover in cotton. […] The fabric was a felt of 20 mg/cm^2 and is a rectangle of 10 cm×20 cm. It was placed on the mini-mattress. Then the attractive solution was sprayed on the fabric with a spray bottle. The fabric was left in place on the mattress. During this time, the mites moved in the felt. It is very difficult to count directly the mites hidden in the mattress and in the fabric. Therefore, we used a Berlese funnel which is a device that is usually used to separate insects from litter. Here, we used it to separate the mites form their mattress or from the fabric. […] The jar was emptied into a Petri dish and we counted mites under binocular. […]

acarids = test: Acarid migration tests of attraction enhancers alone and with limonene (description); type: in vivo; conditions: for acarid attracting effect when used alone: low doses
[4] = blue felt + 1 μL, dil 10^−6, control white felt + 1 μL H2O
[5] = felt + 1 μL of Citral-0 (dilution not given)
[6] = Aluminium bottle, stored 1 month

For `CC(C)=CCCC(C)=CC=O` [Citral, 3,7-dimethyl-2,6-octadienal], the “concentration in stored solutions (mean ± St. Dev.) / detection” value ([1]; 38 solutions, 8-12 months after production) was “not detected”, the “presence in bottled solution (bottle material test)” value ([1]; plastic and aluminium bottles, stored 1 month) was “present in each sample analysed” and the “Mean (compound and color)” value [2, 4] was 0.84. The “Test stat (compound and color)” value [2, 4] was “diff stat”, the “migration of the mites toward the blue felt” value ([2]; blue felt in combination with citral) was 84% and the “effect on dust mites” value ([2]; dilution 10^−3) was “repellent”. The “effect on dust mites” value ([2]; dilution 10^−6) was “attracted”, the “Mean (binary choice of dust mites, tested felt)” value [2, 5] was 0.03 and the “stat Test” value [2, 5] was “Stat diff”. The “Mean (binary choice of dust mites, tested felt)” value ([2]; felt + 1 μL, dil 10^−3) was 0.23, the “stat Test” value ([2]; felt + 1 μL, dil 10^−3) was “Stat diff” and the “Mean (binary choice of dust mites, tested felt)” value ([2]; felt + 1 μL, dilution 10^−6) was 0.72. The “stat Test” value ([2]; felt + 1 μL, dilution 10^−6) was “Stat diff” and the trapped living mites [3] was 17%.
In the case of `CC(C)=CCCC(C)CC=O` (centres unmarked) [Citronellal, 3,7-dimethyloct-6-en-1-al], the “acarid attracting effect when used alone” value (acarids) is reported as “mild acarid attractant” and the migrated population (acarids; tested with limonene for long contact times) is reported as ~1.
For `CC12CCC(CC1)C(C)(C)O2` [Eucalyptol, 1,3,3-Trimethyl-2-oxabicyclo [2.2.2.]octane], the “effect on dust mites” value ([2]; dilution not stated) was “no statistically significant effect”, the “Mean (binary choice of dust mites, tested felt)” value ([2]; felt + 1 μL, dilution 10^−6) was 0.48 and 0.51 and the “stat Test” value ([2]; felt + 1 μL, dilution 10^−6) was “NS”.
In the case of `CC(C)=CCC/C(C)=C/C=O` [Geranial], the “content in the bottled aqueous solution (bottle material test)” value (shortened to “content in the bottled aqueous solution”) [1, 6] is reported as 12.56% ± 1.79 and the “content in the bottled aqueous solution” value ([1]; Plastic bottle, stored 1 month) is reported as 13.03% ± 1.25.
In the case of `C=C(C)[C@H](CO)CC=C(C)C` [Lavendulol], the “effect on dust mites” value ([2]; dilution not stated) is reported as “no statistically significant effect”, the “Mean (binary choice of dust mites, tested felt)” value ([2]; felt + 1 μL, dilution 10^−6) is reported as 0.46 and 0.51 and the “stat Test” value ([2]; felt + 1 μL, dilution 10^−6) is reported as “NS”.
For `C=C(C)C1CC=C(C)CC1` (centres unmarked) [Limonene, 1-methyl-4-(1-methylethenyl)-cyclohexene], the “effect on dust mites” value ([2]; dil. 10^−5) was “attractive”, the “Mean (binary choice of dust mites, tested felt)” value ([2]; felt + 1 μL, dil. 10^−5) was 0.61 and the “stat Test” value ([2]; felt + 1 μL, dil. 10^−5) was “Stat diff”. The “Mean (binary choice of dust mites, tested felt)” value ([2]; felt + 1 μL, dilution 10^−6) was 0.48 and the “stat Test” value ([2]; felt + 1 μL, dilution 10^−6) was “NS”.
In the case of `C=CC(C)(O)CCC=C(C)C` (centres unmarked) [Linalool, 3,7-dimethyl-1,6-octadien-3-ol], the “acarid attracting effect when used alone” value (acarids) is reported as “did not appear to have a significant attracting effect” and the “effect in combination with limonene” value (acarids; combined with limonene and other attractants) is reported as “significant increase in the migrated population”.
In the case of `CC(C)=CCC/C(C)=C\C=O` [Neral], the “content in the bottled aqueous solution” value [1, 6] is reported as 12.68% ± 0.18 and the “content in the bottled aqueous solution” value ([1]; Plastic bottle, stored 1 month) is reported as 12.63% ± 0.59.
With `CC1=CC[C@H]2C[C@@H]1C2(C)C` [α-pinene, (15,55)-2,6,6-trimethylbicyclo[3.1.1]hept-2-ene] the “effect on dust mites” value ([2]; dilution 10^−6) was “attractive”, the “Mean (binary choice of dust mites, tested felt)” value ([2]; felt + 1 μL, dil. 10^−5) was 0.45 and the “stat Test” value ([2]; felt + 1 μL, dil. 10^−5) was “NS”. The “Mean (binary choice of dust mites, tested felt)” value ([2]; felt + 1 μL, dilution 10^−6) was 0.58 and the “stat Test” value ([2]; felt + 1 μL, dilution 10^−6) was “Stat diff”.
For “polyoxyethylene (20) sorbitan monolaurate [Polysorbate 20]”, the “effect on dust mites” value ([2]; dilution not stated) was “no statistically significant effect”, the “Mean (binary choice of dust mites, tested felt)” value ([2]; felt + 1 μL, dilution 10^−6) was 0.50 and 0.53 and the “stat Test” value ([2]; felt + 1 μL, dilution 10^−6) was “NS”.
